Experimental data published in patent US20100028259A1, “USE OF ORGANIC CATION TRANSPORTERS FOR CANCER DIAGNOSIS AND THERAPY” (The Regents of the University of California, priority 2006, published 2010).
Read-outs that look alike come from different tables or passages of the source.

Key:
MDCK-MOCK cells [1] = assay: Cellular accumulation of platinum in MDCK-MOCK cells (ICP-MS); assay type: in vitro ADME, canine; conditions: 2-hr exposure, drug 15 μM
Protocol: (§1) For the inhibitor studies, the incubation medium also contained disopyramide (150 μM). […] For the inhibitor studies, the incubation medium also contained cimetidine (1.5 mM). […] After drug exposure, the cells were washed with ice-cold PBS three times and harvested by scraping and centrifugation. The cell-associated platinum was determined by ICP-MS and normalized for protein content. Data are expressed as mean±SD from a single experiment performed in triplicate. Experiments were replicated for OCT1 and OCT2, and similar results were obtained.
(§2) The cellular accumulation of platinum was determined as described in Holzer et al., Mol. Pharmacol., 66:817-823 (2004) with some modifications. Briefly, the cells were grown in 100 mm×20 mm dishes in the culture medium without any antibiotics to over 90% confluence. For HEK 293 cells, poly-D-lysine coated dishes were used. For platinum accumulation, the cells were incubated in the culture medium containing the indicated concentrations of the platinum compounds at 37° C. in 5% CO2 for 2 hr unless specified. After incubation, the dishes were immediately placed on ice and the cells were washed with 6 ml of ice-cold PBS for three times and collected with a rubber policeman. The cell pellets were obtained by centrifugation at 400×g and at 4° C. for 15 min. For the OCT inhibitor studies, the incubation medium also contained the indicated inhibitor (i.e., disopyramide or cimetidine) in addition to the platinum-based compounds. The resulting cell pellets were then dissolved into 200 μl of 70% nitric acid at 65° C. for at least 2.5 hours, and then distilled water containing 10 ppb of iridium (Sigma) and 0.1% Triton X-100 was added to the samples to dilute nitric acid to 7%. The platinum content was measured by inductively plasma coupled mass spectrometry (ICP-MS) in the Analytical Facility at the University of California at Santa Cruz (Santa Cruz, Calif.). Cell lysates from a set of identical cultures were used for BCA protein assay.

HEK-hOCT2 cells [2] = assay: MTT drug sensitivity assay in HEK-hOCT2 cells; assay type: cell-based, human; conditions: drug exposure 7 hour; read-out: IC50 HEK-hOCT2
Protocol: (§3) Cytotoxicity of the platinum-based compounds was measured by MTT (thiazolyl blue tetrazolium bromide) assay. Cells were seeded in 100 μl of the culture medium without any antibiotics in 96-well plates at a predetermined cell density. For HEK 293 cells, poly-D-lysine coated plates were used. […] For the OCT inhibitor studies, the inhibitors (i.e., disopyramide or cimetidine) were added to the medium at a specified concentration immediately before the addition of the platinum-based compounds. After incubation for a specified time period, the drug-containing medium was replaced with fresh, drug-free medium and the incubation was continued for a total of 72 hours (start from the addition of platinum-based compounds). Then, the MTT assay was performed similarly as described in Alley et al., Cancer Res., 48:589-601 (1988). […] The maximal cell growth was the cell growth in the medium without any platinum-based compounds; C is the concentration of the platinum-based compound, and γ is the slope factor.
(§4) Briefly, the cells were seeded in 96-well plates at a density of 5,000 cells/well for the transfected MDCK cells or 12,000 cells/well for the transfected HEK 293 cells. The platinum-based drugs were added on the following day. After the specified time periods of drug exposure, the drug-containing medium was replaced with fresh, drug-free medium, and the incubation was continued for a total of 72 hours (start from the time when the drug was added). After incubation, the cell growth was determined by an MTT assay. Data are expressed as mean±SD from 3 to 6 independent experiments with each performed in quadruplicate. The resistance factor (RF) was defined as the ratio of the mean IC50 value in the MOCK cells to that in the OCT-transfected cells.

HEK-hOCT3 cells = assay: MTT drug sensitivity assay in HEK-hOCT3 cells; assay type: cell-based, human; conditions: drug exposure 7 hour
Protocol: as §3, §4

HEK-MOCK cells [3] = assay: Cellular accumulation of platinum in HEK-MOCK cells (ICP-MS); assay type: in vitro ADME, human; conditions: cimetidine 1.5 mM
Protocol: as §1
The cellular accumulation of platinum was determined as described in Holzer et al., Mol. Pharmacol., 66:817-823 (2004) with some modifications. Briefly, the cells were grown in 100 mm×20 mm dishes in the culture medium without any antibiotics to over 90% confluence. For HEK 293 cells, poly-D-lysine coated dishes were used. For platinum accumulation, the cells were incubated in the culture medium containing the indicated concentrations of the platinum compounds at 37° C. in 5% CO2 for 2 hr unless specified. […] The platinum content was measured by inductively plasma coupled mass spectrometry (ICP-MS) in the Analytical Facility at the University of California at Santa Cruz (Santa Cruz, Calif.). […]

HEK-MOCK cells [4] = assay: MTT drug sensitivity assay in HEK-MOCK cells (control of HEK-hOCT2); assay type: cell-based, human; conditions: drug exposure 7 hour; Table 2; read-out: IC50 HEK-MOCK
Protocol: (§5) Cytotoxicity of the platinum-based compounds was measured by MTT (thiazolyl blue tetrazolium bromide) assay. Cells were seeded in 100 μl of the culture medium without any antibiotics in 96-well plates at a predetermined cell density. For HEK 293 cells, poly-D-lysine coated plates were used. After overnight incubation, the platinum-based compounds were then added to the culture medium to give the indicated final concentrations. For the OCT inhibitor studies, the inhibitors (i.e., disopyramide or cimetidine) were added to the medium at a specified concentration immediately before the addition of the platinum-based compounds. After incubation for a specified time period, the drug-containing medium was replaced with fresh, drug-free medium and the incubation was continued for a total of 72 hours (start from the addition of platinum-based compounds). Then, the MTT assay was performed similarly as described in Alley et al., Cancer Res., 48:589-601 (1988). […] The maximal cell growth was the cell growth in the medium without any platinum-based compounds; C is the concentration of the platinum-based compound, and γ is the slope factor.
as §4

HEK-hOCT2 cells [5] = assay: Cellular accumulation of platinum in HEK-hOCT2 cells (ICP-MS); assay type: in vitro ADME, human; conditions: 2-hr exposure
Protocol: as §1, §2

MDCK-MOCK cells [6] = assay: MTT drug sensitivity assay in MDCK-MOCK cells; assay type: cell-based, canine; conditions: read-out: IC50 MDCK-MOCK
Protocol: as §5, §4
(§6) Briefly, MDCK cells were seeded at a density of 5,000 cells/well in 96-well plates and exposed to the test compounds for 7 hours on the following day. After incubation for a total of 72 hours, the cell growth was determined by an MTT assay. The data for carboplatin was taken from Table 1 and was not determined simultaneously with the other compounds. The resistance factor (RF) was defined as the ratio of the mean IC50 value in MDCK-MOCK cells to that in MDCK-hOCT1 cells. Data are expressed as mean±SD from six measurements, and each measurement was performed in quadruplicate.

HEK-MOCK cells [7] = assay: MTT drug sensitivity assay in HEK-MOCK cells (control of HEK-hOCT3); assay type: cell-based, human; conditions: drug exposure 7 hour; Table 3
Protocol: as §5, §4

MDCK-hOCT1 cells [8] = assay: MTT drug sensitivity assay in MDCK-hOCT1 cells; assay type: cell-based, canine; conditions: read-out: IC50 MDCK-hOCT1
Protocol: as §3, §4, §6

MDCK-hOCT1 cells [9] = assay: Cellular accumulation of platinum in MDCK-hOCT1 cells (ICP-MS); assay type: in vitro ADME, canine; conditions: 2-hr exposure
Protocol: as §1, §2

[10] = SAR study Table 4, 7 hours of drug exposure
[11] = drug exposure 7 hour, MTT at 72 hours, Table 1

N.N.O=C([O-])C1(C(=O)[O-])CCC1.[Pt+2] [carboplatin]
cellular platinum accumulation rate in MDCK-MOCK (MDCK-MOCK cells [1]): 2.22±0.07 pmol/mg protein-hr
IC50 (HEK-hOCT2 cells [2]): 61.6 ± 46.3 µM
IC50 (HEK-hOCT3 cells): 48.1 ± 23.4 µM
effect of cimetidine on platinum accumulation / cellular uptake in HEK-MOCK (HEK-MOCK cells [3]): little effect
IC50 (HEK-MOCK cells [4]): 110 ± 46.3 µM
fold higher platinum accumulation rate, HEK-hOCT2 vs HEK-MOCK (HEK-hOCT2 cells [5]): 1.38 fold
cellular platinum accumulation rate in HEK-hOCT2 (HEK-hOCT2 cells [5]; drug 10 μM): 4.17±0.18 pmol/mg protein-hr
IC50 (MDCK-MOCK cells [6]; [10]): 258 ± 86.3 µM
IC50 (MDCK-MOCK cells [6]; [11]): 258 ± 86.3 µM
IC50 (HEK-MOCK cells [7]): 84.8 ± 9.71 µM
IC50 (MDCK-hOCT1 cells [8]; [10]): 227 ± 85.8 µM
IC50 (MDCK-hOCT1 cells [8]; [11]): 227 ± 85.8 µM
cellular platinum accumulation rate in MDCK-hOCT1 (MDCK-hOCT1 cells [9]; drug 15 μM): 2.77±0.36 pmol/mg protein-hr
effect of disopyramide on platinum accumulation rate in MDCK-hOCT1 (MDCK-hOCT1 cells [9]; disopyramide 150 μM): not inhibited by disopyramide

O=C1[O][Pt]2([NH]C3CCCCC3[NH]2)[O]C1=O [[Pt(S,S-DACH)oxalato]]
IC50 (MDCK-MOCK cells [6]; [10]): 30 ± 14.2 µM
IC50 (MDCK-hOCT1 cells [8]; [10]): 1.45 ± 1.16 µM

[Cl][Pt]1([Cl])[NH]C2CCCCC2[NH]1 [[Pt(R,R-DACH)Cl2]]
IC50 (MDCK-MOCK cells [6]; [10]): 15 ± 3.24 µM
IC50 (MDCK-hOCT1 cells [8]; [10]): 0.65 ± 0.26 µM

[Cl][Pt]1([Cl])[NH]C2CCCCC2[NH]1 [[Pt(S,S-DACH)Cl2]]
IC50 (MDCK-MOCK cells [6]; [10]): 16.2 ± 3.72 µM
IC50 (MDCK-hOCT1 cells [8]; [10]): 0.57 ± 0.18 µM

NCCN.[Cl][Pt][Cl] [[Pt(Cl2)(en)]]
IC50 (MDCK-MOCK cells [6]; [10]): 33.2 ± 11.5 µM
IC50 (MDCK-hOCT1 cells [8]; [10]): 10.2 ± 4.76 µM
